Results reported in patent US20150291658A1, “NOVEL CHONDRAMIDE DERIVATIVES” (HELMOLTZ-ZENTRUM FÜR INFEKTIONSFORSCHUNG, priority 2012, published 2015).
“Also recorded” adds a separate entry of the source. Like-named read-outs stand apart in the source and are kept apart here.

Assays:
[1] = system: human U-2 OS osteosarcoma cell line; assay: Growth inhibition experiments (MTT, 5 d), U-2 OS; assay type: cell-based
Method: (§1) Cells were seeded at 6×10^3 cells per well of 96-well plates (Corning CellBind®) in 180 μl complete medium and directly treated with chondramides dissolved in methanol in a serial dilution. Each compound was tested in duplicate for 5 d, as well as the internal methanol control. After 5 d incubation, 20 μl of 5 mg/ml MTT (Mosmann, T. (1983). Rapid Colorimetric Assay for Cellular Growth and Survival: Application to Proliferation and Cytotoxicity Assays. J. Immunol. Meth. 65, 55-63) in PBS was added per well and it was further incubated for 2 h at 37° C. The medium was then discarded and cells were washed with 100 μl PBS before adding 100 μl 2-propanol/10 N HCl (250:1) in order to dissolve formazan granules. The absorbance at 570 nm was measured using a microplate reader (EL808, Bio-Tek Instruments Inc.), and cell viability was expressed as percentage relative to the respective methanol control. GI50 values were obtained by sigmoidal curve fitting. Testing of fractions was performed likewise using 1.2×10^4 cells per well. Samples were dissolved in cell culture medium and cells were treated for 2 d before adding MTT. Viability was expressed relative to the untreated control.

[2] = system: HCT-116 colon carcinoma cell line; assay: Growth inhibition experiments (MTT, 5 d), HCT-116; assay type: cell-based, human
Method: as §1

[3] = system: KB-3.1: human cervical carcinoma; assay: Growth inhibition experiments (GI50), KB-3.1; assay type: cell-based; conditions: for GI50 KB-3.1: group A derivatives, small panel of cancer cell lines, KB-3.1 human cervical carcinoma; for GI50 values KB-3.1: Table 1
[4] = system: RAW246.7: murine leukemic monocyte macrophages; assay: Growth inhibition experiments (GI50), RAW246.7; assay type: cell-based; conditions: group A derivatives, small panel of cancer cell lines
[5] = system: HUVEC, human umbilical vein endothelial cells (primary cells); assay: Growth inhibition experiments (MTT, 5 d), HUVEC; assay type: cell-based; conditions: Table 1
Excerpt: (§2) With primary cells (HUVEC, human umbilical vein endothelial cells) and the fibroblast cell line MRC5 this is not the case. Whereas chondramides A˜C are comparably active on both, cancer and non-cancerous cells, brominated chondramide C3 analogs are on average by factor 2-4 less toxic for non-cancerous cells. Accordingly they show a higher selectivity.
(§3) Cell lines were obtained from the American Type Culture Collection (ATCC) and the German Collection of Microorganisms and Cell Cultures (Deutsche Sammlung für Mikroorganismen and Zellkulturen, DSMZ), and HUVEC (single donor) were purchased from PromoCell. Cells were cultured under the conditions recommended by the respective depositor in a standard humidified incubator at 37° C. with 5% CO2.
as §1

[6] = system: fibroblast cell line MRC5; assay: Growth inhibition experiments (MTT, 5 d), MRC5; assay type: cell-based, human; conditions: Table 1
Method: as §2, §1

[7] = system: multidrug resistant (MDR) KB-V.1 cell line; assay: Growth inhibition experiments (MTT, 5 d), KB-V.1; assay type: cell-based; conditions: Table 1
Method: Cancer Inst. 90, 1559-1563). […] The same applies for most novel derivatives, solely a hydroxyl group at C2′ of the polyketide segment instead of methoxy or simply hydrogen leads to an approximately 10-fold reduced potency. GI50 values of glycosylated derivatives were not determinable precisely in the assay's concentration range.
as §1

L-929 = assay: Growth inhibition experiments (GI50), L-929; assay type: cell-based; conditions: Table 1
[8] = system: panel of cell lines derived from various origins and tissues (cancer cell lines, non-cancerous cell lines, primary cells); assay: Growth inhibition experiments (MTT, 5 d), panel of cell lines; assay type: cell-based
Method: First, the compounds were tested on a small panel of cell lines derived from various origins and tissues. GI50 values were compared to those determined using chondramides A˜C (see Table 1).
as §3, §1
These compounds were profiled regarding their growth inhibitory potential in a panel of cancer cell lines. Natural chondramide A was used as reference:
Biological evaluation of group A derivatives. GI50 values [nM] were determined in a small panel of cancer cell lines.

[9] = molecular target: T1, pyrene-labeled rabbit muscle actin (Oryctolagus cuniculus, UniProt P68135); assay: Actin polymerization assay (pyrene actin fluorescence); assay type: biochemical; conditions: 20 μM derivative, 5 μM pyrene actin, non-polymerizing buffer, followed over 85 min
T1 construct: pyrene-labeled rabbit muscle actin; purchased Cytoskeleton, Inc; host or cells: rabbit muscle (tissue-derived; inferred from the name)
Method: A final concentration of 20 μM for each derivative was chosen and polymerization was followed over 85 min.
Fluorescence-based actin polymerization assays were performed using pyrene muscle actin (Cytoskeleton, Inc.) according to the supplier's protocol. Chondramides were dissolved in non-polymerizing buffer (5 mM Tris-HCl pH 8.0, 0.2 mM CaCl2, 0.2 mM ATP, 1 mM DTT) and mixed with pyrene actin diluted in the same buffer to give a final concentration of 20 μM chondramide and 5 μM actin. Samples were prepared in black, low-volume 384-well plates (Corning, NBS™ surface). The fluorescence at 405 nm (excitation at 360 nm) was scanned every 30 s for 85 min at 37° C. on a microplate reader (Spectramax M5^e, Molecular Devices). Experiments were performed in duplicates and the average relative fluorescence of polymerizing pyrene actin is given. Slopes were calculated in the linear range of kinetic measurements.

[10] = group A derivatives, small panel of cancer cell lines, U-2 OS human osteosarcoma, read-out: GI50 U-2 OS
[11] = group A derivatives, small panel of cancer cell lines, HCT-116 human colon carcinoma, read-out: GI50 HCT-116
[12] = Table 1, U-2 OS, read-out: GI50 values U-2 OS
[13] = Table 1, HCT-116, read-out: GI50 values HCT-116

Row | SMILES | GI50 [1, 10] | GI50 [2, 11] | GI50 KB-3.1 [3] | GI50 [4] | GI50 [1, 12] | GI50 [2, 13] | GI50 [5] | GI50 [6] | GI50 values KB-V.1 [7] | GI50 values KB-3.1 [3] | GI50 (L-929) | growth inhibitory activity in cell lines (in words, compared to chondramides A~C / other derivatives) ([8]; GI50-based comparison, panel of cell lines) | GI50 values on human cancer cell lines ([8]; human cancer cell lines, cell-based studies) | actin-polymerizing effect (G-actin polymerization in vitro) [9]
1 | CCC1C/C=C(\C)CCC(=O)NC(C)C(=O)N(C)C(C(C)C)C(=O)NC(c2ccc(O)c(Cl)c2)CC(=O)O1 (centres unmarked) [CA5] | 153 nM | 77.3 nM | 68.7 nM | 56.2 nM | – | – | – | – | – | – | – | – | – | –
2 | CO[C@@H]1C(=O)O[C@H](C)[C@@H](C)C=C(C)C[C@H](C)C(=O)N[C@@H](C)C(=O)N(C)[C@H](Cc2c(Cl)[nH]c3ccccc23)C(=O)NC1c1ccc(O)cc1 (some centres unmarked) [Chondramide B, reference compound] | – | – | – | – | 20.8 ± 1.9 nM | 30.1 ± 9.5 nM | 30.7 ± 2.9 nM | 20.9 ± 3.2 nM | 56.4 ± 9.1 nM | 40.7 ± 9.4 nM | 80.8 ± 13.6 nM | – | – | –
3 | C/C1=C\[C@@H](C)[C@@H](C)OC(=O)C[C@H](c2ccc(O)cc2)NC(=O)[C@@H](Cc2c[nH]c3ccccc23)N(C)C(=O)[C@H](C)NC(=O)[C@@H](C)C1 [Chondramide C, reference compound] | – | – | – | – | 25.6 ± 1.2 nM | 33.7 ± 3.2 nM | 34 ± 3.7 nM | 26.1 ± 4.7 nM | 85.8 ± 14.9 nM | 36.8 ± 6.8 nM | 87.3 ± 14.9 nM | – | – | –
4 | C/C1=C\CCOC(=O)CC(c2ccc(O)c(Br)c2)NC(=O)C(Cc2c[nH]c3ccccc23)N(C)C(=O)C(C)NC(=O)CC1 (centres unmarked) [CA3] | 1.8 nM | 2.1 nM | 6.4 nM | 6.2 nM | – | – | – | – | – | – | – | – | – | –
5 | CCC1C/C=C(\C)CC(C)C(=O)NC(C)C(=O)N(C)C(C(C)C)C(=O)NC(c2ccc(O)c(Cl)c2)CC(=O)O1 (single isomer, unassigned) [CA6-Fr2] | 65.4 nM | 101 nM | 74.5 nM | 105 nM | – | – | – | – | – | – | – | – | – | –
6 | CCC1OC(=O)CC(c2ccc(O)c(Br)c2)NC(=O)C(Cc2c[nH]c3ccccc23)N(C)C(=O)C(C)NC(=O)C(C)CC(C)=CC1C (centres unmarked) [Propionyl-Bromo-Chondramide C3] | – | – | – | – | 9 ± 0.6 nM | 17.2 ± 1.6 nM | 50.2 ± 5.6 nM | 130 ± 3.7 nM | 31.9 ± 2.0 nM | 38.0 ± 6.5 nM | 23 ± 2.1 nM | the most active in cell-based studies | low nanomolar range | –
7 | CCC1C/C=C(\C)CCC(=O)NC(C)C(=O)N(C)C(Cc2c(Cl)[nH]c3ccccc23)C(=O)NC(c2ccc(O)c(Cl)c2)CC(=O)O1 (centres unmarked) [CA8] | 0.6 nM | 0.2 nM | 1.1 nM | 0.8 nM | – | – | – | – | – | – | – | – | – | –
8 | CC1=CC(C)C(C)OC(=O)CC(c2ccc(O)c(Br)c2)NC(=O)C(Cc2c[nH]c3ccccc23)N(C)C(=O)C(C)NC(=O)C(C)C1 (centres unmarked) [Bromo-Chondramide C3] | – | – | – | – | 4.8 ± 1.7 nM | 17.7 ± 1.3 nM | 44.4 ± 7 nM | 57.7 ± 3.5 nM | 23.8 ± 2.1 nM | 46.8 ± 6.5 nM | 14 ± 1.4 nM | – | – | –
9 | CCC1C/C=C(\C)CC(C)C(=O)NC(C)C(=O)N(C)C(Cc2c(Cl)[nH]c3ccccc23)C(=O)NC(c2ccc(O)c(Cl)c2)CC(=O)O1 (single isomer, unassigned) [CA7-Fr2] | 1.3 nM | 0.8 nM | 1.9 nM | 1.8 nM | – | – | – | – | – | – | – | – | – | –
10 | COC1C(=O)OC(C)C(C)C=C(C)CC(C)C(=O)NC(C)C(=O)N(C)C(Cc2c(Cl)[nH]c3ccccc23)C(=O)NC1c1ccc(O)c(Cl)c1 (centres unmarked) [Chondramide A4] | – | – | – | – | 26.4 ± 2.2 nM | 44.4 ± 1.6 nM | 52.5 ± 7.4 nM | 12.7 ± 1.4 nM | 83.1 ± 1.6 nM | 56.8 ± 7.0 nM | 67.6 ± 9.8 nM | – | – | similarly potent; also recorded: increases the polymerization rate even more drastically
11 | C/C1=C\CCOC(=O)CC(c2ccc(O)c(Cl)c2)NC(=O)C(Cc2c(Cl)[nH]c3ccccc23)N(C)C(=O)C(C)NC(=O)CC1 (centres unmarked) [CA2] | 66.7 nM | 30.5 nM | 375.9 nM | 180 nM | – | – | – | – | – | – | – | – | – | –
12 | CO[C@@H]1C(=O)O[C@H](C)[C@H](C)/C=C(\C)C[C@H](C)C(=O)N[C@@H](C)C(=O)N(C)[C@H](Cc2c[nH]c3ccccc23)C(=O)N[C@H]1c1ccc(O)cc1 [Chondramide A, reference compound] | 68.5 nM | 91.7 nM | 71.6 nM | 47.3 nM | 27.1 ± 4.1 nM | 48.9 ± 14.6 nM | 43.7 ± 7 nM | 63.8 ± 13 nM | 38.0 ± 10.5 nM | 50.5 ± 15.4 nM | 90.9 ± 11.8 nM | – | – | –
13 | CCC1C/C=C(\C)CC(C)C(=O)NC(C)C(=O)N(C)C(Cc2c(Cl)[nH]c3ccccc23)C(=O)NC(c2ccc(O)c(Cl)c2)CC(=O)O1 (single isomer, unassigned) [CA7-Fr1] | 53.5 nM | 16.3 nM | 97.9 nM | 74.7 nM | – | – | – | – | – | – | – | – | – | –
14 | CCC1C/C=C(\C)CCC(=O)NC(C)C(=O)N(C)C(C(C)C)C(=O)NC(c2ccc(O)c(Cl)c2)CC(=O)O1 (centres unmarked) [CA4] | > 180 nM | 25.5 nM | 58.2 nM | 29.8 nM | – | – | – | – | – | – | – | – | – | –
15 | CCC1C/C=C(\C)CC(C)C(=O)NC(C)C(=O)N(C)C(C(C)C)C(=O)NC(c2ccc(O)c(Cl)c2)CC(=O)O1 (single isomer, unassigned) [CA6-Fr1] | 59.6 nM | 79.4 nM | 71.4 nM | 41.1 nM | – | – | – | – | – | – | – | – | – | –
16 | C/C1=C\CCOC(=O)CC(c2ccc(O)c(Cl)c2)NC(=O)C(C(C)C)N(C)C(=O)C(C)NC(=O)CC1 (centres unmarked) [CA9] | > 180 nM | 180 nM | >180 nM | > 180 nM | – | – | – | – | – | – | – | – | – | –
